What was measured:
hERG (KCNH2) = hERG (KCNH2) (Homo sapiens, UniProt Q12809); test: Inhibition of human ERG at 10 uM relative to control
[1] = AUC (0 to 6 hrs) in CD-1 mouse at 10 mg/kg, po; format: ADME, organism-based; parameters: dose 10 mg/kg, time < 6 hr, route oral; settings: in vivo
[2] = target: T1, Amine oxidase [flavin-containing] A (Homo sapiens, UniProt P21397); test: Inhibition of MAOA (unknown origin) at >20 uM
T1 sequence (P21397 whole entry): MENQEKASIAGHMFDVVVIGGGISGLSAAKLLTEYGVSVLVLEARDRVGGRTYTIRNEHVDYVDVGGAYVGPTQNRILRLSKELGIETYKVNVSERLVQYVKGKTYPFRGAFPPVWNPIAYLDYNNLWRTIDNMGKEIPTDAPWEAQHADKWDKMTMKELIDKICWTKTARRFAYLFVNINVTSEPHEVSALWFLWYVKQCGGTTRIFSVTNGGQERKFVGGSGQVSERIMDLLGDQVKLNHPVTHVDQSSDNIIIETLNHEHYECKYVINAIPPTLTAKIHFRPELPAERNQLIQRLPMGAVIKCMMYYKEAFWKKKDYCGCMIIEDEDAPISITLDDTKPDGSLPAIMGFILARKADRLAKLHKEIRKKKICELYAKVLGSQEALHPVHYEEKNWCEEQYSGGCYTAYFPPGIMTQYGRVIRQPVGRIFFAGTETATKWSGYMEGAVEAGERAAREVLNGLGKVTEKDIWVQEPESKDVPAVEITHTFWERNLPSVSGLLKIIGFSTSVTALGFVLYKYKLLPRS

[3] = target: T2, Amine oxidase [flavin-containing] B (Homo sapiens, UniProt P27338); test: Inhibition of MAOB (unknown origin) at >20 uM
T2 sequence (P27338 whole entry): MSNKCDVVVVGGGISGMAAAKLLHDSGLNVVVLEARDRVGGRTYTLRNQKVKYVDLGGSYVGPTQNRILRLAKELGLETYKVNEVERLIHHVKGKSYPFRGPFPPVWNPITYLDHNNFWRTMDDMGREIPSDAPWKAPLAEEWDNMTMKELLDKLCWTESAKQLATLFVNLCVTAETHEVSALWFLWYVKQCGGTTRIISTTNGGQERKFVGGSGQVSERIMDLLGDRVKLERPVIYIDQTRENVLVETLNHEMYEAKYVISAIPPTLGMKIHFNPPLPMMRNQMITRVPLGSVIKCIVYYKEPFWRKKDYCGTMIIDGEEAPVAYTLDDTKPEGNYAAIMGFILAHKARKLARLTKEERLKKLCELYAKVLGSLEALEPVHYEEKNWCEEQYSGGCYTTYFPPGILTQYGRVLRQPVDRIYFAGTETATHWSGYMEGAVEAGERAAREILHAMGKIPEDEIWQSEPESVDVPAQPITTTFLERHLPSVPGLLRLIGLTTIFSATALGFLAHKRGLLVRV

[4] = target: T3, Lysine-specific histone demethylase 1A (Homo sapiens, UniProt O60341); test: Inhibition of LSD1 (unknown origin)
[5] = target: T3, Lysine-specific histone demethylase 1A; test: Inhibition of LSD1 in human THP1 cells assessed as induction of CD11b expression after 4 days by LIVE/DEAD violet staining based FACS analysis

Chain of hERG (KCNH2) (Q12809 whole entry): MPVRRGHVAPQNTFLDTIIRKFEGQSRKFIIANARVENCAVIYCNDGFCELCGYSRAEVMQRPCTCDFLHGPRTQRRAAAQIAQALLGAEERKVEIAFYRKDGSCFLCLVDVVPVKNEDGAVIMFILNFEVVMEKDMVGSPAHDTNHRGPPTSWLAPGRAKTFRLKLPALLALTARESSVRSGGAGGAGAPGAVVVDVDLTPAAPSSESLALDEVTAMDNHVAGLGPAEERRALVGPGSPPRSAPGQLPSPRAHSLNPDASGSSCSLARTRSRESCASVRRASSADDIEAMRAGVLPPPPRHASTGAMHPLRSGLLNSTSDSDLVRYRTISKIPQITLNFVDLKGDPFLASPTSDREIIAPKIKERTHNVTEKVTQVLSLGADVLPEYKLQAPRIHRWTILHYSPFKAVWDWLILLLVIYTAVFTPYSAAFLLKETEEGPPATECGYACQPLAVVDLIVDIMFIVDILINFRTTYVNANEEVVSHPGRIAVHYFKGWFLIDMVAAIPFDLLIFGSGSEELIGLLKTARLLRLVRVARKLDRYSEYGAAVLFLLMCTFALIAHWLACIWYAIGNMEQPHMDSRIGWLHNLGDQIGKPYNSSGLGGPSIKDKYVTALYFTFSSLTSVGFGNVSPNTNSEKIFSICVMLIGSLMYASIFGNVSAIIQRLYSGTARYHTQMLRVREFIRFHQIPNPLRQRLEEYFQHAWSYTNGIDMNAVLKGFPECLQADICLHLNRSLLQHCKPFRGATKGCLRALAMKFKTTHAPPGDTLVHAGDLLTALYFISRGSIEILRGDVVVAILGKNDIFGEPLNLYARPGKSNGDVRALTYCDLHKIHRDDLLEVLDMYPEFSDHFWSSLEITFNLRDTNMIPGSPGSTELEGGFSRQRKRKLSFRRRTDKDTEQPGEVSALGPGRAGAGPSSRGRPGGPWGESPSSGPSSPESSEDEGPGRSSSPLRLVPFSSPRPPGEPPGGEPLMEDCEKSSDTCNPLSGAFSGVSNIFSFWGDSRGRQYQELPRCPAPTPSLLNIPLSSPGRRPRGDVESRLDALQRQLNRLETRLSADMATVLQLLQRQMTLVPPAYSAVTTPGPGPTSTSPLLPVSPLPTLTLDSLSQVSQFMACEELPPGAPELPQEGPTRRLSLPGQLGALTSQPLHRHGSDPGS

Row | Structure (SMILES) | inhibition at 10 µM (hERG (KCNH2)) [%] | AUC(0-t) at 6 h [1] [ng·h/mL] | inhibition (INH) [2] | inhibition (INH) [3] | IC50 [4] [µM] | EC50 [5] [µM]
1 | Cc1c(C(=O)N2CC[C@H](N)C2)nc(-c2ccc(C#N)c(F)c2)n1-c1ccc2nn(C)cc2c1 | 12 | 80 | Active | Active |  | 
2 | Cc1c(C(=O)N2CC[C@H](N(C)C)C2)nc(-c2ccc(C#N)c(F)c2)n1-c1cc(F)c2nn(C)cc2c1 | 17 | 660 | Active | Active |  | 
3 | COc1ccc(-n2c(-c3ccc(C#N)c(F)c3)nc(C(=O)N3CC[C@H](N)C3)c2C)cc1F | 41 |  |  |  |  | 
4 | COc1ccc(-n2c(-c3ccc(C#N)c(F)c3)nc(C(=O)N[C@@H]3CCCNC3)c2C)cc1F | 65 |  |  |  |  | 
5 | CN[C@H]1CCN(C(=O)c2nc(-c3ccc(C#N)c(F)c3)n(-c3ccc4nn(C)c(Cl)c4c3)c2C)C1 | 24 | 640 | Active | Active |  | 
6 | Cc1c(C(=O)N2CCC[C@@H](N)C2)nc(-c2ccc(C#N)c(F)c2)n1-c1ccc2nn(C)c(Cl)c2c1 | 28 | 100 | Active | Active |  | 
7 | CN[C@@H]1CCCN(C(=O)c2nc(-c3ccc(C#N)c(F)c3)n(-c3ccc4nn(C)c(Cl)c4c3)c2C)C1 | 34 | 410 | Active | Active |  | 
8 | Cc1c(C(=O)N2CCC[C@@H](N)C2)nc(-c2ccc(C#N)c(F)c2)n1-c1ccc2nn(C)cc2c1 | < 10 | 25 |  |  |  | 
9 | Cc1c(C(=O)N2CCC[C@@H](N)C2)nc(-c2ccc(C#N)c(F)c2)n1-c1ccc2c(cnn2C)c1 | 52 | 106 |  |  |  | 
10 | Cc1ccc(-n2c(-c3ccc(C#N)cc3)nc(C(=O)N3CCC[C@@H](N)C3)c2C)cc1 | 94 |  |  |  |  | 
11 | Cc1ccc(-c2ncc(OC[C@@H]3CCNC3)cc2-c2ccc(C#N)cc2)cc1 | 90 |  |  |  | 0.01 | 0.062
12 | Cc1c(C(=O)N2CC[C@H](N(C)C)C2)nc(-c2ccc(C#N)c(F)c2)n1-c1ccc2nn(C)cc2c1 | 30 | 760 | Active | Active |  | 
13 | COc1ccc(-n2c(-c3ccc(C#N)c(F)c3)nc(C(=O)N3CCC[C@@H](N)C3)c2C)cc1 | 69 |  |  |  |  | 
14 | CN[C@H]1CCN(C(=O)c2nc(-c3ccc(C#N)c(F)c3)n(-c3cc4cn(C)nc4cc3F)c2C)C1 | 22 |  | Active | Active |  | 
15 | COc1ccc(-n2c(-c3ccc(C#N)c(F)c3)nc(C(=O)N3CCC[C@@H](N)C3)c2C)cc1F | 30 |  |  |  |  | 
16 | Cc1c(C(=O)N2CC[C@H](N(C)C)C2)nc(-c2ccc(C#N)c(F)c2)n1-c1cc2cn(C)nc2cc1F | 44 | 940 | Active | Active |  | 

— ChEMBL document CHEMBL4308861, “Structure-based design and discovery of potent and selective lysine-specific demethylase 1 (LSD1) inhibitors” (Bioorg Med Chem Lett, 2019)
